Results: patent publication US20200216906A1, “METHODS AND COMPOSITIONS RELATING TO THE DIAGNOSIS AND TREATMENT OF CANCER” (PRESIDENT AND FELLOWS OF HARVARD COLLEGE, priority 2015, published 2020)
Where a name gives a salt, the structure may show the parent alone. Read-outs that look alike come from different tables or passages of the source.

Legend:
[1] = target: T1, ABCG2 (Homo sapiens, UniProt Q9UNQ0); settings: Cusatis and Sparreboom, 2008; cited from earlier work
T1 sequence (Q9UNQ0 1-655): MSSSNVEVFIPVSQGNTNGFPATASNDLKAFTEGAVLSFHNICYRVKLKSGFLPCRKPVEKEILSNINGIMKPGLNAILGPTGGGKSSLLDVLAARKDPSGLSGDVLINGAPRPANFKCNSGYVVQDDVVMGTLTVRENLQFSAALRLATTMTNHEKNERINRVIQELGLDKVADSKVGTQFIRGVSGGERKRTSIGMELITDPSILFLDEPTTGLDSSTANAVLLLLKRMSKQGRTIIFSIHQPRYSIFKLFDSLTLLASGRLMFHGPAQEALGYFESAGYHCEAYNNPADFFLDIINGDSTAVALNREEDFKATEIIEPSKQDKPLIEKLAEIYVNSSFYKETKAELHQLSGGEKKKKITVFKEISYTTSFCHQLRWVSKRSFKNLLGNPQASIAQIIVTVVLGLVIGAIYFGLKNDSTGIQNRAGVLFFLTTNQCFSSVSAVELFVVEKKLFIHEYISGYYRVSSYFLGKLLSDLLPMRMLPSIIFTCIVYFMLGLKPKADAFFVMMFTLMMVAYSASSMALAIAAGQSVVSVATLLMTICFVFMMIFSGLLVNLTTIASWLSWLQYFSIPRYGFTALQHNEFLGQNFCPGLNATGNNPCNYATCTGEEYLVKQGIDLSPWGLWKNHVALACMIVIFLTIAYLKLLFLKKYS

[2] = Stability of gemcitabine in culture and conditioned media; assay type: in vitro ADME
Source text: Drug availability mediated by transport or binding or export from the cell is known to be a major determinant of the sensitivity to chemotherapy (O'CONNOR, 2007). […] Furthermore, conditioned media collected from Panc02.13 cells exposed to gemcitabine after 5 days retained 96.7% activity (FIGS. 35A-[…]).

[3] = test system: Panc02.13 cells expressing vector only (02.13-WT); assay: Kinetic cell growth assay, Panc02.13 cells expressing vector only; assay type: cell-based, human; settings: Homo sapiens
Protocol: (§1) Panc02.13 cells were used to express YAPS6A (or vector controls) under sparse and dense cultures. Expression was confirmed by confocal microscopy (data not shown). Suppression of the Hippo pathway by expression of non-phospho, active form of YAP (YAPS6A) sensitized pancreatic cancer cells to gemcitabine and 5-FU (FIGS. 6 and 7). Apoptosis was measured by immunobloting with cleaved caspases 3/7 or PARP. Blots were also stained with anti-β-actin for loading control. The effect of Hippo pathway suppression on gemcitabine and 5-FU senstitization was maintained in 3D spheroid culture (FIG. 8). The effects of eleven cytotoxic drugs on the growth of Panc02.13 cells expressing vector only or YAPS6A construct grown under low or high densities were determined (Table 1).
(§2) The effect of gemcitabine on pancreatic cancer cell growth was studied using a kinetic cell growth assay. Pancreatic cancer cells were plated on 96-well plates (Essen ImageLock, Essen Instruments, MI, US) at varying densities (2-4×10^3 for low density or 15-20×10^3 for high density experiments). Small molecule inhibitors at different doses were added 24 hours after plating and cell confluence was monitored with Incucyte Live-Cell Imaging System and software (Essen Instruments). Confluence was observed every hour for 48-144h or until the control (DMSO only) samples reached 100% confluence.
as §2, with “Kinetic Cell growth assay. The” for “The”, “(2-4X103” for “(2-4×10^3”, “15-20X103” for “15-20×10^3”, “Incucyte™” for “Incucyte”

[4] = test system: Panc02.13 cells expressing YAPS6A construct; assay: Kinetic cell growth assay, Panc02.13 cells expressing YAPS6A; assay type: cell-based, human; settings: for EC50: Homo sapiens, YAPS6A construct
Protocol: as §1, §2
Cell lines (Panc02.13, Panc10.05 or Miapaca2) were transfected with YAPS6A constructs (Addgene) using Lipofectamine™ (Invitrogen, Carlsbad, Calif.) following the manufacturer's instructions and 48 hour post-transfection selected in 5-10 μg/ml Blasticidin (InvivoGen, San Diego, Calif.). The clones screened for YAPS6A expression by Western blot. Stable cell lines were maintained in complete medium and 5 μg/ml Blasticidin.
as §2, with “Kinetic Cell growth assay. The” for “The”, “(2-4X103” for “(2-4×10^3”, “15-20X103” for “15-20×10^3”, “Incucyte™” for “Incucyte”

In the case of `Nc1ccn([C@@H]2O[C@H](CO)[C@@H](O)C2(F)F)c(=O)n1` [Gemcitabine, Gemcitabine hydrochloride], the “Substrate of ABCG2” value [1] is listed as “substrates of ABCG2”, the “Activity retained in conditioned media” value ([2]; conditioned media from Panc02.13 cells after 5 days) is listed as 96.7% and the “Lability in culture media” value ([2]; culture media) is listed as “not labile”. For the same compound, the EC50 ([3]; high density, read-out: High density (EC50, nM) 02.13-WT) was 1100 nM, the EC50 ([3]; low density, read-out: Low density (EC50, nM) 02.13-WT) was 1.6 nM and the EC50 ([4]; high density, read-out: High density (EC50, nM) 02.13-YAPS6A) was 17 nM. For the same compound, the EC50 ([4]; low density, read-out: Low density (EC50, nM) 02.13-YAPS6A) was 1.7 nM and the “Sensitization by expression of YAPS6A” value ([4]; suppression of the Hippo pathway, high cell density) was “sensitized”.
